Reference: ChEMBL document CHEMBL1201862, “PubChem BioAssay data set” (2004)
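Exposure lasted 48 hours, with cells grown in 96-well plates and compounds tested at five concentrations. Here, GI50 denotes the concentration required for 50% inhibition of growth.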 The source made the active and inactive calls. Cut-off read from the data, not from the text of the source: active = GI50 up to about 1.1 µM and inactive = higher.

How the values were obtained:
Assay in all cases: NCI-60 cell line screen, 48 h
UO-31 = tested on: UO-31
SN12C = tested on: SN12C
SK-MEL-5 = tested on: SK-MEL-5
HCT-116 = tested on: HCT-116
SF-268 = tested on: SF-268
NCI/ADR-RES = tested on: NCI/ADR-RES
MCF7 = tested on: MCF7
RPMI-8226 = tested on: RPMI-8226
NCI-H23 = tested on: NCI-H23
Hs-578T = tested on: Hs-578T
HCT-15 = tested on: HCT-15
SW-620 = tested on: SW-620
OVCAR-3 = tested on: OVCAR-3
UACC-257 = tested on: UACC-257
NCI-H522 = tested on: NCI-H522
UACC-62 = tested on: UACC-62
LOX IMVI = tested on: LOX IMVI
OVCAR-8 = tested on: OVCAR-8
HT-29 = tested on: HT-29
IGROV-1 = tested on: IGROV-1
OVCAR-5 = tested on: OVCAR-5
ACHN = tested on: ACHN
SNB-19 = tested on: SNB-19
K562 = tested on: K562
KM12 = tested on: KM12
786-0 = tested on: 786-0
TK-10 = tested on: TK-10
CCRF-CEM = tested on: CCRF-CEM
CAKI-1 = tested on: CAKI-1
SR = tested on: SR
MDA-MB-435 = tested on: MDA-MB-435
SF-295 = tested on: SF-295
T47D = tested on: T47D
MOLT-4 = tested on: MOLT-4
SK-MEL-2 = tested on: SK-MEL-2
EKVX = tested on: EKVX
A549 = tested on: A549
DU-145 = tested on: DU-145
HOP-62 = tested on: HOP-62
SK-MEL-28 = tested on: SK-MEL-28
PC-3 = tested on: PC-3
M14 = tested on: M14
MDA-N = tested on: MDA-N
COLO 205 = tested on: COLO 205
NCI-H460 = tested on: NCI-H460
SF-539 = tested on: SF-539
HCC 2998 = tested on: HCC 2998
SNB-75 = tested on: SNB-75
Malme-3M = tested on: Malme-3M
NCI-H226 = tested on: NCI-H226
MDA-MB-231 = tested on: MDA-MB-231
OVCAR-4 = tested on: OVCAR-4
U-251 = tested on: U-251
HL-60 = tested on: HL-60
HOP-92 = tested on: HOP-92
RXF 393 = tested on: RXF 393

Compound: COC(=O)C(Nc1ccc(OC)cc1)c1ccccc1 (stereo unspecified)
- GI50 (UO-31): > 100 µM (inactive)
- GI50 (SN12C): > 100 µM (inactive)
- GI50 (SK-MEL-5): > 100 µM (inactive)
- GI50 (HCT-116): > 100 µM (inactive)
- GI50 (SF-268): > 100 µM (inactive)
- GI50 (NCI/ADR-RES): 74.1 µM (inactive)
- GI50 (MCF7): > 100 µM (inactive)
- GI50 (RPMI-8226): 83.9 µM (inactive)
- GI50 (NCI-H23): > 100 µM (inactive)
- GI50 (Hs-578T): > 100 µM (inactive)
- GI50 (HCT-15): > 100 µM
- GI50 (SW-620): > 100 µM (inactive)
- GI50 (OVCAR-3): > 100 µM (inactive)
- GI50 (UACC-257): > 100 µM (inactive)
- GI50 (NCI-H522): > 100 µM (inactive)
- GI50 (UACC-62): > 100 µM (inactive)
- GI50 (LOX IMVI): > 100 µM (inactive)
- GI50 (OVCAR-8): > 100 µM (inactive)
- GI50 (HT-29): > 100 µM (inactive)
- GI50 (IGROV-1): > 100 µM (inactive)
- GI50 (OVCAR-5): > 100 µM (inactive)
- GI50 (ACHN): > 100 µM (inactive)
- GI50 (SNB-19): > 100 µM (inactive)
- GI50 (K562): > 100 µM (inactive)
- GI50 (KM12): > 100 µM (inactive)
- GI50 (786-0): > 100 µM (inactive)
- GI50 (TK-10): > 100 µM (inactive)
- GI50 (CCRF-CEM): > 100 µM (inactive)
- GI50 (CAKI-1): > 100 µM (inactive)
- GI50 (SR): > 100 µM (inactive)
- GI50 (MDA-MB-435): > 100 µM (inactive)
- GI50 (SF-295): 89.3 µM (inactive)
- GI50 (T47D): > 100 µM (inactive)
- GI50 (MOLT-4): > 100 µM (inactive)
- GI50 (SK-MEL-2): > 100 µM (inactive)
- GI50 (EKVX): > 100 µM (inactive)
- GI50 (A549): > 100 µM (inactive)
- GI50 (DU-145): > 100 µM (inactive)
- GI50 (HOP-62): > 100 µM (inactive)
- GI50 (SK-MEL-28): > 100 µM (inactive)
- GI50 (PC-3): > 100 µM (inactive)
- GI50 (M14): > 100 µM (inactive)
- GI50 (MDA-N): > 100 µM (inactive)
- GI50 (COLO 205): > 100 µM (inactive)
- GI50 (NCI-H460): > 100 µM (inactive)
- GI50 (SF-539): > 100 µM (inactive)

Compound: COc1cccc(C2c3cc4c(cc3OC(N3CCCC3)C2c2ccccc2)OCO4)c1O (stereo unspecified)
- GI50 (UO-31): 3.46 µM (inactive)
- GI50 (SN12C): 12.7 µM (inactive)
- GI50 (SK-MEL-5): 10.8 µM (inactive)
- GI50 (HCT-116): 4.21 µM (inactive)
- GI50 (SF-268): 9.02 µM (inactive)
- GI50 (NCI/ADR-RES): 9.91 µM (inactive)
- GI50 (MCF7): 8.65 µM (inactive)
- GI50 (RPMI-8226): 5.69 µM (inactive)
- GI50 (NCI-H23): 14 µM (inactive)
- GI50 (Hs-578T): 0.279 µM (active)
- GI50 (HCT-15): 6 µM
- GI50 (SW-620): 7.78 µM (inactive)
- GI50 (OVCAR-3): 3.34 µM (inactive)
- GI50 (UACC-257): 11.4 µM (inactive)
- GI50 (NCI-H522): 12 µM (inactive)
- GI50 (UACC-62): 14.1 µM (inactive)
- GI50 (HCC 2998): 11 µM (inactive)
- GI50 (LOX IMVI): 12.4 µM (inactive)
- GI50 (OVCAR-8): 10.3 µM (inactive)
- GI50 (HT-29): 7.43 µM (inactive)
- GI50 (IGROV-1): 7.59 µM (inactive)
- GI50 (OVCAR-5): 25.2 µM (inactive)
- GI50 (ACHN): 3.72 µM (inactive)
- GI50 (SNB-19): 5.57 µM (inactive)
- GI50 (K562): 5.35 µM (inactive)
- GI50 (KM12): 2.76 µM (inactive)
- GI50 (786-0): 8.32 µM (inactive)
- GI50 (TK-10): 13.7 µM (inactive)
- GI50 (CCRF-CEM): 5.13 µM (inactive)
- GI50 (CAKI-1): 2.88 µM (inactive)
- GI50 (SR): 4.76 µM (inactive)
- GI50 (MDA-MB-435): 6.59 µM (inactive)
- GI50 (SF-295): 3.74 µM (inactive)
- GI50 (T47D): 5.97 µM (inactive)
- GI50 (MOLT-4): 3.85 µM (inactive)
- GI50 (SNB-75): 5.74 µM (inactive)
- GI50 (SK-MEL-2): 12.1 µM (inactive)
- GI50 (EKVX): 16.6 µM (inactive)
- GI50 (A549): 11.6 µM (inactive)
- GI50 (DU-145): 11.9 µM (inactive)
- GI50 (HOP-62): 21 µM (inactive)
- GI50 (SK-MEL-28): 13 µM (inactive)
- GI50 (PC-3): 8.28 µM (inactive)
- GI50 (M14): 11 µM (inactive)
- GI50 (MDA-N): 8.18 µM (inactive)
- GI50 (COLO 205): 7.24 µM (inactive)
- GI50 (NCI-H460): 8.22 µM (inactive)
- GI50 (SF-539): 6.78 µM (inactive)

Compound: COc1nn(Cc2ccccc2F)c2ccc([N+](=O)[O-])cc12
- GI50 (UO-31): > 100 µM (inactive)
- GI50 (Malme-3M): > 85.3 µM (inactive)
- GI50 (SN12C): > 100 µM (inactive)
- GI50 (SK-MEL-5): > 100 µM (inactive)
- GI50 (HCT-116): > 100 µM (inactive)
- GI50 (SF-268): > 100 µM (inactive)
- GI50 (NCI/ADR-RES): > 100 µM (inactive)
- GI50 (MCF7): > 100 µM (inactive)
- GI50 (NCI-H23): > 100 µM (inactive)
- GI50 (Hs-578T): > 45.9 µM (inactive)
- GI50 (HCT-15): > 100 µM
- GI50 (SW-620): > 100 µM (inactive)
- GI50 (OVCAR-3): > 100 µM (inactive)
- GI50 (UACC-257): > 50.6 µM (inactive)
- GI50 (NCI-H522): > 30 µM (inactive)
- GI50 (NCI-H226): > 100 µM (inactive)
- GI50 (MDA-MB-231): 12.1 µM (inactive)
- GI50 (HCC 2998): > 100 µM (inactive)
- GI50 (LOX IMVI): > 100 µM (inactive)
- GI50 (OVCAR-8): > 100 µM (inactive)
- GI50 (OVCAR-4): > 100 µM (inactive)
- GI50 (HT-29): > 100 µM (inactive)
- GI50 (IGROV-1): > 100 µM (inactive)
- GI50 (U-251): > 100 µM (inactive)
- GI50 (OVCAR-5): > 100 µM (inactive)
- GI50 (ACHN): > 100 µM (inactive)
- GI50 (SNB-19): > 100 µM (inactive)
- GI50 (K562): 2.91 µM (inactive)
- GI50 (HL-60): 4.28 µM (inactive)
- GI50 (KM12): > 100 µM (inactive)
- GI50 (786-0): > 100 µM (inactive)
- GI50 (TK-10): > 100 µM (inactive)
- GI50 (CCRF-CEM): > 100 µM (inactive)
- GI50 (CAKI-1): > 100 µM (inactive)
- GI50 (SR): > 100 µM (inactive)
- GI50 (MDA-MB-435): 2.74 µM (inactive)
- GI50 (T47D): > 100 µM (inactive)
- GI50 (MOLT-4): > 20 µM (inactive)
- GI50 (SNB-75): > 100 µM (inactive)
- GI50 (HOP-92): 90.6 µM (inactive)
- GI50 (SK-MEL-2): 98.9 µM (inactive)
- GI50 (EKVX): > 100 µM (inactive)
- GI50 (A549): > 100 µM (inactive)
- GI50 (DU-145): > 100 µM (inactive)
- GI50 (HOP-62): 18.9 µM (inactive)
- GI50 (SK-MEL-28): > 100 µM (inactive)
- GI50 (M14): > 100 µM (inactive)
- GI50 (MDA-N): 3.4 µM (inactive)
- GI50 (RXF 393): 7.48 µM (inactive)
- GI50 (COLO 205): > 100 µM (inactive)
- GI50 (NCI-H460): > 100 µM (inactive)
- GI50 (SF-539): 41.1 µM (inactive)
